The supplement of paper PMC6045584
± gives the standard deviation of the averaged measurements.

Assays:
[1] = compound: C=CCn1c(=O)c2cnc(Nc3ccc(N4CCN(C)CC4)cc3)nc2n1-c1cccc(C(C)(C)O)n1 [MK-1775]; experiment: surviving fraction relative to DMSO-only wells; higher = less growth inhibition; details: exposure time: 5 days
How it was run: (§1)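 Lines were retained only if, across three screens, replicate Pearson r was >0.7 and median Z' was >0.3. Viability was measured as CellTiter-Glo luminescence and reported as surviving fraction relative to the median of DMSO-only wells. Readings followed 10 minutes at room temperature, after log-phase tumour cells seeded at 250–500 per well in 384-well plates had been exposed, from 24 hours after seeding, continuously for five days to inhibitors at 0.5, 1, 5, 10, 50, 100, 500 and 1000 nM.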

[2] = compound: CCc1cc(Nc2nccc(-c3c(-c4ccc(OC)c(C(=O)Nc5c(F)cccc5F)c4)nc4ccccn34)n2)c(OC)cc1N1CCC(N2CCN(S(C)(=O)=O)CC2)CC1; experiment: as above; details: exposure time: 5 days
How it was run: as §1

Row | Test System | surviving fraction ([1]; 0.5 nM) | surviving fraction ([1]; 1 nM) | surviving fraction ([1]; 5 nM) | surviving fraction ([1]; 10 nM) | surviving fraction ([1]; 50 nM) | surviving fraction ([1]; 100 nM) | surviving fraction ([1]; 500 nM) | surviving fraction ([1]; 1000 nM) | surviving fraction ([2]; 0.5 nM) | surviving fraction ([2]; 1 nM) | surviving fraction ([2]; 5 nM) | surviving fraction ([2]; 10 nM) | surviving fraction ([2]; 50 nM) | surviving fraction ([2]; 100 nM) | surviving fraction ([2]; 500 nM) | surviving fraction ([2]; 1000 nM)
1 | SCC36 HEADNECK | 1.05 ± 0.066 | 1.08 ± 0.12 | 1.18 ± 0.065 | 0.995 ± 0.053 | 0.906 ± 0.035 | 0.739 ± 0.037 | 0.323 ± 0.029 | 0.228 ± 0.021 | 0.967 ± 0.035 | 1.04 ± 0.096 | 1.11 ± 0.091 | 1.1 ± 0.072 | 1.07 ± 0.027 | 1.09 ± 0.078 | 0.887 ± 0.03 | 0.791 ± 0.024
2 | SCC47 HEADNECK | 1.01 ± 0.031 | 1.06 ± 0.025 | 1.11 ± 0.051 | 1.11 ± 0.08 | 0.992 ± 0.053 | 0.713 ± 0.047 | 0.238 ± 0.025 | 0.159 ± 0.014 | 0.99 ± 0.038 | 0.992 ± 0.047 | 1.05 ± 0.047 | 1.06 ± 0.021 | 1 ± 0.075 | 1.08 ± 0.038 | 1.04 ± 0.028 | 1.03 ± 0.04
3 | SCC90 HEADNECK | 1.25 ± 0.31 | 1.2 ± 0.16 | 1.07 ± 0.078 | 1.12 ± 0.25 | 0.704 ± 0.034 | 0.355 ± 0.017 | 0.0583 ± 0.0068 | 0.0493 ± 0.011 | 1 ± 0.084 | 1.01 ± 0.11 | 1.02 ± 0.052 | 1.1 ± 0.023 | 1.02 ± 0.046 | 1.12 ± 0.21 | 1.06 ± 0.23 | 1.14 ± 0.046
4 | SG27 HEADNECK | 1.04 ± 0.046 | 1.04 ± 0.11 | 1.08 ± 0.068 | 1.03 ± 0.11 | 0.969 ± 0.12 | 1.01 ± 0.14 | 0.853 ± 0.1 | 0.896 ± 0.061 | 1.04 ± 0.066 | 0.999 ± 0.11 | 1.06 ± 0.065 | 1.13 ± 0.057 | 1.05 ± 0.065 | 1.17 ± 0.19 | 1.2 ± 0.034 | 1.15 ± 0.071
5 | SG28 HEADNECK | 0.987 ± 0.18 | 1.11 ± 0.066 | 1.14 ± 0.12 | 1.04 ± 0.046 | 0.698 ± 0.0084 | 0.549 ± 0.032 | 0.441 ± 0.034 | 0.558 ± 0.11 | 1.01 ± 0.085 | 1.09 ± 0.099 | 1.04 ± 0.099 | 1.07 ± 0.082 | 1.1 ± 0.1 | 1.04 ± 0.041 | 1.22 ± 0.07 | 1.21 ± 0.061
6 | SG31 HEADNECK | 1.15 ± 0.19 | 1.03 ± 0.1 | 0.968 ± 0.097 | 0.977 ± 0.12 | 0.979 ± 0.14 | 0.789 ± 0.1 | 0.623 ± 0.074 | 0.649 ± 0.048 | 0.923 ± 0.036 | 1.08 ± 0.23 | 1.04 ± 0.2 | 0.903 ± 0.099 | 1.04 ± 0.14 | 1.14 ± 0.2 | 1.08 ± 0.26 | 1.1 ± 0.086
7 | SG32 HEADNECK | 1.25 ± 0.072 | 1.43 ± 0.26 | 1.13 ± 0.19 | 1.14 ± 0.2 | 0.852 ± 0.074 | 0.476 ± 0.037 | 0.22 ± 0.038 | 0.19 ± 0.0027 | 1.07 ± 0.22 | 1.11 ± 0.026 | 1.15 ± 0.089 | 1.17 ± 0.15 | 1.15 ± 0.23 | 1.21 ± 0.1 | 1.6 ± 0.59 | 1.15 ± 0.017
8 | SG43 HEADNECK | 1.22 ± 0.14 | 1.01 ± 0.11 | 1.02 ± 0.084 | 0.823 ± 0.063 | 0.906 ± 0.072 | 0.911 ± 0.06 | 0.783 ± 0.14 | 0.549 ± 0.14 | 1.18 ± 0.18 | 1.1 ± 0.26 | 0.948 ± 0.15 | 0.985 ± 0.15 | 1.13 ± 0.046 | 0.908 ± 0.12 | 1.38 ± 0.024 | 1.25 ± 0.3
9 | SIHA CERVIX | 1.08 ± 0.03 | 1.04 ± 0.054 | 1.09 ± 0.066 | 1.08 ± 0.039 | 1.17 ± 0.085 | 1.16 ± 0.057 | 0.277 ± 0.049 | 0.0987 ± 0.013 | 1.01 ± 0.019 | 1.04 ± 0.071 | 1.06 ± 0.055 | 1.11 ± 0.046 | 1.05 ± 0.084 | 1.18 ± 0.053 | 1.02 ± 0.037 | 1.09 ± 0.034
10 | SJSA1 BONE | 1 ± 0.011 | 1.0057 ± 0.00058 | 1.03 ± 0.026 | 1.04 ± 0.034 | 1.02 ± 0.033 | 0.938 ± 0.049 | 0.384 ± 0.011 | 0.317 ± 0.02 | 1.03 ± 0.038 | 0.99 ± 0.056 | 1.08 ± 0.066 | 1.1 ± 0.065 | 1.07 ± 0.013 | 1.09 ± 0.024 | 1.03 ± 0.056 | 1.03 ± 0.013
11 | SKBR3 BREAST | 1.07 ± 0.15 | 0.873 ± 0.22 | 0.975 ± 0.15 | 1.02 ± 0.15 | 0.858 ± 0.12 | 0.746 ± 0.077 | 0.308 ± 0.031 | 0.182 ± 0.0035 | 1.04 ± 0.12 | 1.06 ± 0.18 | 1.05 ± 0.057 | 0.99 ± 0.089 | 0.983 ± 0.13 | 1.01 ± 0.099 | 0.849 ± 0.082 | 0.664 ± 0.048
12 | SNU475 LIVER | 1.05 ± 0.06 | 1.04 ± 0.032 | 1.04 ± 0.024 | 0.9893 ± 0.0081 | 0.941 ± 0.035 | 0.884 ± 0.054 | 0.58 ± 0.031 | 0.345 ± 0.033 | 0.88 ± 0.066 | 0.966 ± 0.042 | 0.982 ± 0.024 | 0.976 ± 0.062 | 0.982 ± 0.025 | 0.956 ± 0.023 | 0.957 ± 0.054 | 0.875 ± 0.061
13 | SUM44 BREAST | 1.043 ± 0.0078 | 1.08 ± 0.034 | 1.04 ± 0.023 | 1.07 ± 0.017 | 0.979 ± 0.017 | 0.561 ± 0.014 | 0.26 ± 0.0095 | 0.254 ± 0.01 | 1.07 ± 0.041 | 1.04 ± 0.015 | 1.06 ± 0.037 | 1.07 ± 0.023 | 1.07 ± 0.062 | 1.155 ± 0.0075 | 0.9687 ± 0.0055 | 0.994 ± 0.034
14 | SUM149 BREAST | 1.13 ± 0.077 | 1.09 ± 0.069 | 1.16 ± 0.095 | 1.12 ± 0.097 | 0.706 ± 0.025 | 0.328 ± 0.024 | 0.073 ± 0.0044 | 0.0517 ± 0.0025 | 1.07 ± 0.059 | 1.14 ± 0.027 | 1.09 ± 0.035 | 1.12 ± 0.037 | 1.06 ± 0.14 | 1.11 ± 0.13 | 1.08 ± 0.081 | 1.05 ± 0.12
15 | SUM149.B1*.S BREAST | 1.1 ± 0.035 | 1.11 ± 0.053 | 1.1 ± 0.043 | 1.13 ± 0.017 | 1.07 ± 0.025 | 0.892 ± 0.018 | 0.198 ± 0.01 | 0.144 ± 0.0048 | 0.994 ± 0.024 | 1.05 ± 0.033 | 1.05 ± 0.051 | 1.1 ± 0.02 | 1.01 ± 0.047 | 1.081 ± 0.01 | 1.05 ± 0.082 | 1.04 ± 0.048
16 | SUM159 BREAST | 1.06 ± 0.023 | 1.03 ± 0.021 | 1.04 ± 0.028 | 1.02 ± 0.022 | 1.01 ± 0.069 | 1.02 ± 0.057 | 0.69 ± 0.17 | 0.377 ± 0.16 | 1.1 ± 0.27 | 1.17 ± 0.28 | 1.15 ± 0.24 | 1.14 ± 0.2 | 1.11 ± 0.21 | 1.12 ± 0.19 | 1.07 ± 0.14 | 1.08 ± 0.18
